Experimental data taken from paper PMC2956696, “A novel antiangiogenic peptide derived from hepatocyte growth factor inhibits neovascularization in vitro and in vivo” (Molecular Vision, 2010).
No end group written: not given here.

Experiments:
[1] = test system: RF/6A cells; test: Cell viability with H-RN alone (MTS); assay type: cell-based, rhesus macaque; conditions: any concentration tested, vs culture medium group
Method: A cell proliferation assay was performed as described previously. A colorimetric MTS (3-(4,5-dimeth-ylthiazol-2-yl)-5-(3-carboxymethoxyphenol)-2-(4-sulphophenyl)-2H-tetrazolium) assay (CellTiter 96 AQ; Promega, Madison, WI) was used according to the manufacturer’s instructions. Briefly, cells were seeded onto a 96-well plate (4.8×10^3 cells/well). After 24 h, cells were serum-starved overnight, and then treated with 100 ng/ml VEGF and various doses of H-RN or H-FT (0, 1 μM, 10 μM, 100 μM, or 1 mM) in 100 μl of serum-free medium for an additional 24 h. In positive control group, 100 μl of serum-free medium contains 100 ng/ml VEGF and 0.25 or 2.5 mg/ml bevacizumab (Avastin®, Hoffmann-La Roche Ltd., Basel, Switzerland), and the negative control group contains 100 ng/ml VEGF and a scrambled peptide at concentrations of 1 μM, 10 μM, 100 μM, or 1 mM. […] The absorbance at 490 nm was recorded using a microplate reader (Bio-Rad, Model 680, Hercules, CA). […]
RF/6A cells were exposed for 24 h to VEGF (100 ng/ml), or to VEGF combined with various concentrations of bevacizumab, H-RN, or H-FT. […] At the highest dose of H-RN tested (1 mM), the mean absorbance value was very close to that of the control group (0.735 versus 0.673), though this inhibitory effect was not as strong as that of 2.5 mg/ml bevacizumab (0.735 versus 0.615). […]

[2] = test system: RF/6A cells; test: VEGF-driven cell migration assay (Transwell); assay type: cell-based, rhesus macaque; conditions: 100 ng/ml VEGF, 24 h, H-FT 1 nM to 1 µM, bevacizumab both concentrations
Method: A cell migration assay was performed as described previously, with modification as below. Briefly, RF/6A cells were starved overnight, trypsinized, and suspended at a final concentration of 5×10^5 cells/ml. Various concentrations of bevacizumab or peptides were preincubated with the cells for 30 min at 37 °C before seeding into the Transwell chambers (pretreated by culture medium, 10 mm diameter, 8.0 µm pore size; Corning Inc., New York, NY), the 5×10^4 cells were added to each upper chamber. VEGF (100 ng/ml) was placed into the lower chamber. The assembled cell-culture insert chamber was then incubated at 37 °C for 24 h. After removing the nonmigrating cells in the upper chambers with a cotton swab, migrated cells on the lower surface of the porous membrane were fixed, stained with Gram stain, and photographed under a light microscope (Olympus, Tokyo, Japan). Five random fields (×200) were chosen in each insert, and the cell number was quantified manually. Each experiment was repeated three times.

[3] = test system: RF/6A cells; test: Endothelial cell tube formation assay on Matrigel; assay type: cell-based, rhesus macaque; conditions: 100 ng/ml VEGF, 6 h, peptides 100 nM-1 mM, bevacizumab both concentrations
Method: A tube formation assay was performed as previously described. The 96 well culture plate were coated with Matrigel™ (BD Biosciences, Bedford, MA) according to the manufacturer’s instructions. RF/6A cells (2.5×10^4 in number) were preincubated with various concentrations of bevacizumab or peptides (100 nM–1 mM) before being seeded on coated plates in a serum-free medium containing VEGF 100 ng/ml, and then incubated at 37 °C for 6 h. Tube formation was observed using an inverted phase contrast microscope (Olympus, Tokyo, Japan). Images were captured with a digital camera (Olympus). The degree of tube formation was quantified by measuring the length of tubes in three randomly chosen fields (with magnification of ×100) from each well using the Image-Pro Plus Program (version 5.1; Media Cybernetics, Inc.). Each group was tested in triplicate. Each experiment was repeated three times.

[4] = test system: RF/6A cells; test: VEGF-stimulated cell proliferation assay (MTS); assay type: cell-based, rhesus macaque; conditions: 24 h
Method: A cell proliferation assay was performed as described previously. A colorimetric MTS (3-(4,5-dimeth-ylthiazol-2-yl)-5-(3-carboxymethoxyphenol)-2-(4-sulphophenyl)-2H-tetrazolium) assay (CellTiter 96 AQ; Promega, Madison, WI) was used according to the manufacturer’s instructions. Briefly, cells were seeded onto a 96-well plate (4.8×10^3 cells/well). After 24 h, cells were serum-starved overnight, and then treated with 100 ng/ml VEGF and various doses of H-RN or H-FT (0, 1 μM, 10 μM, 100 μM, or 1 mM) in 100 μl of serum-free medium for an additional 24 h. In positive control group, 100 μl of serum-free medium contains 100 ng/ml VEGF and 0.25 or 2.5 mg/ml bevacizumab (Avastin®, Hoffmann-La Roche Ltd., Basel, Switzerland), and the negative control group contains 100 ng/ml VEGF and a scrambled peptide at concentrations of 1 μM, 10 μM, 100 μM, or 1 mM. After completion of the treatment, 20 μl of the 3-(4,5-dimethylthiazol-2-yl)-5-(3-carboxymethoxyphenol)-2-(4-sulphophenyl)-2H-tetrazolium (MTS) reagent were pipetted into each well and incubated for 4 h. The absorbance at 490 nm was recorded using a microplate reader (Bio-Rad, Model 680, Hercules, CA). Each group was tested at least in triplicate, and the assays were repeated a minimum of three times.

| Substance | Peptide remaining after 48 h [%] | Cell viability with peptide alone (in words) [1] | Inhibition of VEGF-induced cell migration (in words) [2] | Inhibition of VEGF-induced tube formation (in words) [3] | Inhibition of VEGF-induced cell proliferation (in words) ([4]; 100 ng/ml VEGF, peptides 1 μM-1 mM, bevacizumab 2.5 mg/ml) | Mean absorbance value (490 nm, MTS), VEGF-induced proliferation ([4]; 2.5 mg/ml bevacizumab + 100 ng/ml VEGF, serum-free medium, control group 0.673) |
| --- | --- | --- | --- | --- | --- | --- |
| H-FTSNPEVRYEV-OH | > 90 | – | – | – | – | – |
| RNPRGEEGGPW [H-RN] | > 90 | cell viability was not affected | – | – | – | – |
| bevacizumab | – | – | effectively inhibited cell migration | strongly inhibited | strongly inhibited | 0.615 |
